We go through one compound from patent publication EP0551200A1, “Protein phosphatase inhibitors for use in therapy” (priority 1992, dated 1993).

The test system of one experiment is Egr-1 mRNA. As to the kind of experiment: Nuclear run-on analysis of transcription in Balb/c 3T3 cells. In kind it is cell-based, mouse. To be noted: 0.5 µM. On the procedure: Nuclei were isolated from quiescent (0 h) and okadaic acid-treated (0.5 µM) Balb/c 3T3 cells under conditions described in the "Experimental Procedures" of Example 2. Nylon matrix containing the indicated plasmids were hybridized with the in vitro transcribed RNA and then autoradiographed. Control cells were also treated with DMEM containing […] of DMSO and RNA from these cells were also transcribed and hybridized to the various plasmids indicated.
Cell Cultures and Reagents. Human diploid foreskin fibroblasts were a gift from Dr J Vilcek (New York University, New York). The cells were grown in MEM supplemented with 10% fetal bovine serum (Hyclone, Logan, UT, US), Mouse Balb/c 3T3 cells were purchased from the American Type Culture Collection and grown in Dulbecco's MEM (DMEM) supplemented with 10% fetal bovine serum. Okadaic acid, calyculin A, H7, and HA1004 were purchased from Biomol Research Laboratories (Plymouth Meeting, PA, US). TPA, puromycin and dBt-cAMP were purchased from Sigma (St Louis, MO, US) 1 mM stock solutions of okadaic acid or calyculin A were solubilized in DMSO. [³²P]orthophosphate and other radioactive chemicals were purchased from Du Pont-New England Nuclear (Boston, MA). Preparation of RNA and Northern Analysis. Balb/c 3T3 cells were grown to near confluency in DMEM supplemented with 10% fetal calf serum. The cells were then maintained in DMEM without serum for 48 h followed by treatment with the indicated agonists for the times indicated. Similarly human fibroblasts were maintained in MEM supplemented with 10% fetal bovine serum. Nearly confluent human fibroblasts were maintained for 2 days in MEM supplemented with 0.25% fetal bovine serum before treatment with agonists. The cells were harvested and total cytoplasmic RNA was isolated and subjected to Northern analysis as previously described (Chomczynski et al, Anal. Biochem. 162, 156-159, 1987). The blots were autoradiographed and quantitated with the aid of the Visage 2000 Image System (BioImage Products, Ann Arbor, MI, US). Nuclear Run-on Analysis of Transcription. […]

The test system of the next experiment is c-jun. As to the kind of experiment: Northern blot analysis of c-jun gene expression in human fibroblasts. In kind it is cell-based. To be noted: OA 500 nM. On the procedure:
Quiescent human fibroblasts were incubated with TNF (500 units/ml) (a) or OA (500 nM) (b) for 0, 30, 60 min after which total cellular RNA was extracted. Blots of RNA from these cells were hybridized to radiolabeled (10⁶ cpm/ml) Egr-1 cDNA probe. c, the blot in b was stripped and reprobed with c-jun cDNA. Note: Egr-1 mRNA probe was not completely stripped from the blot. The autoradiograph of the blot is presented. d, regularly maintained cells were incubated wither with no additions (control, 0 time) or with OA for 1, 3, 5, 7 h and Northern analysis was carried out with an IL-6 cDNA probe (ATCC, Rockville, MD, US).
Preparation of RNA and Northern Analysis - Human fibroblasts (4 x 10⁶) were seeded in 175cm² tissue culture flasks and incubated at 37°C for 6 days in regular medium. The cells were fed with regular medium on day 3. On day 6 the medium was replaced by minimal essential medium containing 0.25% fetal calf serum and incubated for another 48 h to maintain the cells in a quiescent state. Quiescent or regularly maintained cells were treated with a specific agonist for the times indicated (see Fig. 7). The cells were harvested and total cytoplasmic RNA isolated by a one-step guanidinium thiocyanate/phenol/chloroform method. […] The blots were autoradiographed and quantitated by the Visage 2000 Image system (BioImage Products, Ann Arbor, MI, US).

Take `C=C1[C@@H](O)[C@@H]2O[C@]3(CC[C@H](/C=C/[C@@H](C)[C@@H]4CC(C)=C[C@@]5(O[C@H](C[C@@](C)(O)C(=O)O)CC[C@H]5O)O4)O3)CC[C@H]2O[C@@H]1[C@@H](O)C[C@H](C)[C@H]1O[C@@]2(CCCCO2)CC[C@H]1C` [okadaic acid]: in the experiment with Egr-1 mRNA, the “time at which a trace of newly transcribed Egr-1 mRNA was detectable” value was determined as 0.5 h, the “time by which significant amounts of Egr-1 mRNA were transcribed” value was no more than 1 h and the “time of maximum transcription of Egr-1 mRNA” value amounted to 4 h. The “time to induction of c-jun” value with c-jun is reported as no more than 60 min.
